From ChEMBL document CHEMBL4038335, “Neuroactive Steroids. 2. 3α-Hydroxy-3β-methyl-21-(4-cyano-1H-pyrazol-1'-yl)-19-nor-5β-pregnan-20-one (SAGE-217): A Clinical Next Generation Neuroactive Steroid Positive Allosteric Modulator of the (γ-Aminobutyric Acid)A Receptor” (J Med Chem, 2017)
≈ marks a conversion by molar mass, not a printed value.

Columns and labels:
[1] = Clearance in human hepatocytes at 10 uM preincubated for 5 mins […] measured over 60 mins by HPLC-MS/MS analysis; assay type: ADME, cell-based, Hepatocyte; settings: 1 h
[2] = system: Canis familiaris; test: Clearance in Beagle dog at 5 mg/kg, iv or 20 mg/kg, po measured up to 8 hrs post dose by LC/MS-MS analysis relative to hepatic blood flow; assay type: ADME, organism-based, Canis lupus familiaris; settings: in vivo
[3] = target: Kv channel-interacting protein 2/Potassium voltage-gated channel subfamily D member 3 (Homo sapiens, UniProt Q9NS61+Q9UK17); test: Inhibition of Kv4.3(unknown origin)/KChIP2.2 (unknown origin) by patch clamp assay
[4] = Oral bioavailability in CD1 mouse at 20 mg/kg measured up to 8 hrs post dose by LC/MS-MS analysis; assay type: ADME, organism-based; settings: in vivo
[5] = system: Mus musculus; test: Anticonvulsant activity in PTZ-induced seizure mouse model at 0.3 to 3 mg/kg, ip; assay type: functional
[6] = Oral bioavailability in Beagle dog at 20 mg/kg measured up to 8 hrs post dose by LC/MS-MS analysis; assay type: ADME, organism-based, Canis lupus familiaris; settings: in vivo
[7] = Lipophilicity, logD of compound at 20 uM at pH 7.4 by HPLC/MS-MS analysis; assay type: physicochemical; settings: buffer
[8] = Clearance in CD1 mouse at 5 mg/kg, iv or 20 mg/kg, po measured up to 8 hrs post dose by LC/MS-MS analysis; assay type: ADME, organism-based; settings: in vivo
[9] = Protein binding in mouse plasma at 10 uM after 6 hrs by equilibrium dialysis; assay type: ADME, cell-free; settings: read-out: PPB
[10] = target: Inward rectifier potassium channel 2 (Homo sapiens, UniProt P63252); test: Inhibition of Kir2.1 (unknown origin) by patch clamp assay
[11] = target: Cytochrome P450 3A4 (Homo sapiens, UniProt P08684); test: Inhibition of CYP3A4 (unknown origin); assay type: ADME
[12] = target: Voltage-gated inwardly rectifying potassium channel KCNH2 (Homo sapiens, UniProt Q12809); test: Inhibition of human ERG by patch clamp assay
[13] = target: Cytochrome P450 2C9 (Homo sapiens, UniProt P11712); test: Inhibition of CYP2C9 (unknown origin); assay type: ADME
Sequence of Cytochrome P450 2C9 (P11712 whole entry): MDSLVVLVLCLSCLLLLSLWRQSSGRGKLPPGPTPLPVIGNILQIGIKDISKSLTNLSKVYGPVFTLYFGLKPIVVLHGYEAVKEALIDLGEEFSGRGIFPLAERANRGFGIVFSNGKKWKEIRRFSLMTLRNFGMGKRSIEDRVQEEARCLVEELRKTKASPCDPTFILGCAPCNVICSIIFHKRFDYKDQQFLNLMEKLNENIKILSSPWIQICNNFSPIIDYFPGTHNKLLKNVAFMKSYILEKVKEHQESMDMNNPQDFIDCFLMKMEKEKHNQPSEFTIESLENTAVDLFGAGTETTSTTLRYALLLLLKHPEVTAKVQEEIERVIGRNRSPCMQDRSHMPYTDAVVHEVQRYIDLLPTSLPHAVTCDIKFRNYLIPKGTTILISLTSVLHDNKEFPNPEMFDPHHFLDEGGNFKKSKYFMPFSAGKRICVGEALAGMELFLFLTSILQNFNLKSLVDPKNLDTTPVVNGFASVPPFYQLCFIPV

[14] = Displacement of [35S]TBPS from GABA-A receptor in Sprague-Dawley rat cerebral cortex cell membranes after 90 mins in presence of GABA by liquid scintillation counting
[15] = target: Sodium channel protein type 5 subunit alpha (Homo sapiens, UniProt Q14524); test: Inhibition of Nav1.5 (unknown origin) by patch clamp assay
[16] = Ratio of drug level in Sprague-Dawley rat brain to plasma at 5 mg/kg, iv measured at 30 mins post dose by LC/MS-MS analysis; assay type: ADME, organism-based; settings: read-out: BPR
[17] = Thermodynamic aqueous solubility of compound at 10 uM sonicated for 1 min followed by incubation for 1 hr by HPLC-MS/MS; assay type: physicochemical; settings: buffer; read-out: Therm_solubility
[18] = Protein binding in rat plasma at 10 uM after 6 hrs by equilibrium dialysis; assay type: ADME, cell-free; settings: read-out: PPB (converted)
[19] = target: Glycine receptor subunit alpha-1 (Homo sapiens) (UniProt P23415); test: Binding affinity to human glycine alpha 1 receptor expressed in HEK293 cells at 10 uM by IonFlux based assay; assay type: cell-based
Sequence of Glycine receptor subunit alpha-1 (Homo sapiens) (P23415 whole entry): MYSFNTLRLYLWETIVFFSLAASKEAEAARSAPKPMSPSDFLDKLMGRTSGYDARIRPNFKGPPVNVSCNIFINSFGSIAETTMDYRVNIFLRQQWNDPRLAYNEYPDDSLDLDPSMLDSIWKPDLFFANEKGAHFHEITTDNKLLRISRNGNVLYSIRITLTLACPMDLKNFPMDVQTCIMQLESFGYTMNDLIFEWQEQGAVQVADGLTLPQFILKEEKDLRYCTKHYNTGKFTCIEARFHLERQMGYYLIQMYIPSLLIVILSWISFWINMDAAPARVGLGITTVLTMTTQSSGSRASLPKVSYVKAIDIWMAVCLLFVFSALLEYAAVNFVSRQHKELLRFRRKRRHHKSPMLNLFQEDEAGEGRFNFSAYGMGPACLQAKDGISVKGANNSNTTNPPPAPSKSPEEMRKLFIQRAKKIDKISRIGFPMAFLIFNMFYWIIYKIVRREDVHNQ

[20] = target: Cytochrome P450 1A2 (Homo sapiens, UniProt P05177); test: Inhibition of CYP1A2 (unknown origin); assay type: ADME
Sequence of Cytochrome P450 1A2 (P05177 whole entry): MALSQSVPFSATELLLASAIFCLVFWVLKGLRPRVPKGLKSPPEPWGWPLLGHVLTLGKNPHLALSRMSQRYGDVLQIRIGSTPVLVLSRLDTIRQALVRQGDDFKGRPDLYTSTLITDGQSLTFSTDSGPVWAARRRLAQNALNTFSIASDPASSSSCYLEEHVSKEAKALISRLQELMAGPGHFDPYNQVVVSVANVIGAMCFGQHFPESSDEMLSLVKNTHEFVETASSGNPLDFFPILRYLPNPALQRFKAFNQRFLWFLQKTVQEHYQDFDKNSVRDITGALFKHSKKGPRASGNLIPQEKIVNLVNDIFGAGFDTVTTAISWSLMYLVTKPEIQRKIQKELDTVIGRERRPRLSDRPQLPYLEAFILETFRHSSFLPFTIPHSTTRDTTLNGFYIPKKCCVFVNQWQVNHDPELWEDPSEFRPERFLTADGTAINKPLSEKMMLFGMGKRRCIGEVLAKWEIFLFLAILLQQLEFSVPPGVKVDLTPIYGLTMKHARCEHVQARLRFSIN

[21] = Clearance in human hepatic microsomes at 10 uM preincubated for 5 mins followed by NADPH addition measured over 60 mins by HPLC-MS/MS analysis; assay type: ADME, Microsome; settings: liver microsomes
[22] = target: GABA-A receptor alpha-4/beta-3/delta (Homo sapiens, UniProt P28472+P48169+); test: Positive allosteric modulation of GABAA receptor alpha4beta3delta (unknown origin) expressed in CHO cells assessed as potentiation of GABA-mediated increase in channel current under holding potential at -80 mV at 0.01 to 10 uM preincubated for 30 secs followed by GABA stimulation for 2 secs by manual patch clamp assay relative to GABA; assay type: cell-based; settings: 2 s
Sequence of GABA-A receptor alpha-4/beta-3/delta (P28472 whole entry): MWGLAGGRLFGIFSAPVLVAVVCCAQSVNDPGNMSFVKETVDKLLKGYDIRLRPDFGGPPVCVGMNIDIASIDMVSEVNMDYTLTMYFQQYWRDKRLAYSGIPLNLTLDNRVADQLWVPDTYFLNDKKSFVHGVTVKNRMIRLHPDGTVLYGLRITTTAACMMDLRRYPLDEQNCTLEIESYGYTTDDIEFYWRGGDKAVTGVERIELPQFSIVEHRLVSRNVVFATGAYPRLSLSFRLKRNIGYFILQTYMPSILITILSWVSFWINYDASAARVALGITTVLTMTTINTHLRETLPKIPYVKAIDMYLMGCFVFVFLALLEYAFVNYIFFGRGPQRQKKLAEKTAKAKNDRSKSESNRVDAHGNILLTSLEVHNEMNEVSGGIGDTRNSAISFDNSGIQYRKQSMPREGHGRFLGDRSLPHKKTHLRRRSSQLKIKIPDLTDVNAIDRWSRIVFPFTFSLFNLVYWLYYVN
Sequence of GABA-A receptor alpha-4/beta-3/delta (P48169 whole entry): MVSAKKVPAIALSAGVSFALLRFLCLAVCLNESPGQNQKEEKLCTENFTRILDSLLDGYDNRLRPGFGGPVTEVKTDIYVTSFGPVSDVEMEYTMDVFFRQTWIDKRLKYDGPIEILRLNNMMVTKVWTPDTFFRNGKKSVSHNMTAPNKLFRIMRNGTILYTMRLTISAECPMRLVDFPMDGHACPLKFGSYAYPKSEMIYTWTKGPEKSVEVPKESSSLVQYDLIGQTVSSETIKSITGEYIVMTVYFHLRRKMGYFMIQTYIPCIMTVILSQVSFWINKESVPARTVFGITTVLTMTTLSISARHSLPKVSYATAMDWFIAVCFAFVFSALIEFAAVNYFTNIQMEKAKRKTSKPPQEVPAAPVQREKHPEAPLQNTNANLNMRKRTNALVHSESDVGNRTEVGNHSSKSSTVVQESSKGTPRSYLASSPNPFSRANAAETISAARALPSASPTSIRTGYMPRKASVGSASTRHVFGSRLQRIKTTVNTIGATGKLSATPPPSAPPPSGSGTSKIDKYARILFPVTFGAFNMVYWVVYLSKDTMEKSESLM
Sequence of GABA-A receptor alpha-4/beta-3/delta (Q06278 whole entry, further chain): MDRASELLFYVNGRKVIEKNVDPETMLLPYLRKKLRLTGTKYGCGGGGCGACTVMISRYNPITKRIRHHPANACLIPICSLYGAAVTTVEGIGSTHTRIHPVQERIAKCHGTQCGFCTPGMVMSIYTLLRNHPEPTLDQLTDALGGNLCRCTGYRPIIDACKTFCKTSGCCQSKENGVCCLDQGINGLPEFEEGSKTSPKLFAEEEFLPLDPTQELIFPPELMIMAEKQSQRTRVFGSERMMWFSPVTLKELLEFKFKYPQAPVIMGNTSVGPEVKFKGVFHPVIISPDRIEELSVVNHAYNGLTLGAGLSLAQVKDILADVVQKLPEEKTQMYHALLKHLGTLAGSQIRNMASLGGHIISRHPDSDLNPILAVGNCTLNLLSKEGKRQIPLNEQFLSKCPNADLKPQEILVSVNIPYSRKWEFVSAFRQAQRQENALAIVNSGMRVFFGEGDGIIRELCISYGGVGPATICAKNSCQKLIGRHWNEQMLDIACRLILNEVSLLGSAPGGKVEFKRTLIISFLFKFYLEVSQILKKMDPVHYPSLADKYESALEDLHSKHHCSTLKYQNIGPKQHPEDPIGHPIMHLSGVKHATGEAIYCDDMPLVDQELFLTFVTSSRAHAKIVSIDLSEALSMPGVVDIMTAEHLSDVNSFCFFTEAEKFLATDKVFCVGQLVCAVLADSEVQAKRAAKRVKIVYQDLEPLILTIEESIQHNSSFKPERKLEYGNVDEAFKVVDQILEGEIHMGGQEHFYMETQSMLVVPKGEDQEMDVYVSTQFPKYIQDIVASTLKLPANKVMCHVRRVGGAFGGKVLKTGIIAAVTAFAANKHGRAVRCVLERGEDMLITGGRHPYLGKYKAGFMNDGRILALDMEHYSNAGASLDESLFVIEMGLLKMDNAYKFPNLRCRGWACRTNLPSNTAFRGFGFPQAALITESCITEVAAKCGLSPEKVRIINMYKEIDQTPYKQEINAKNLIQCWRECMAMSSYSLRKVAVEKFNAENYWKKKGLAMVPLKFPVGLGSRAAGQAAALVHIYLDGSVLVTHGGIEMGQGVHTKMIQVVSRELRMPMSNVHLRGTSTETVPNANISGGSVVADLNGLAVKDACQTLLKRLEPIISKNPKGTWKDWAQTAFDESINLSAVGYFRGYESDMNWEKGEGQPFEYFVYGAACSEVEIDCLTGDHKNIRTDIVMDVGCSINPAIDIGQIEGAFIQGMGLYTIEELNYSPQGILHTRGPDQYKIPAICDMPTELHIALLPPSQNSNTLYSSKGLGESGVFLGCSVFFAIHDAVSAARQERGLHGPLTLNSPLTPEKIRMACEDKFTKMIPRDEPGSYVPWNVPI

[23] = Clearance in rat hepatocytes at 10 uM preincubated for 5 mins […] measured over 60 mins by HPLC-MS/MS analysis; assay type: ADME, cell-based, Hepatocyte; settings: 1 h
[24] = Protein binding in dog plasma at 10 uM after 6 hrs by equilibrium dialysis; assay type: ADME, cell-free, Canis lupus familiaris; settings: read-out: PPB (converted)
[25] = target: Potassium voltage-gated channel subfamily A member 5 (Homo sapiens, UniProt P22460); test: Inhibition of Kv1.5 (unknown origin) by patch clamp assay
Sequence of Potassium voltage-gated channel subfamily A member 5 (P22460 whole entry): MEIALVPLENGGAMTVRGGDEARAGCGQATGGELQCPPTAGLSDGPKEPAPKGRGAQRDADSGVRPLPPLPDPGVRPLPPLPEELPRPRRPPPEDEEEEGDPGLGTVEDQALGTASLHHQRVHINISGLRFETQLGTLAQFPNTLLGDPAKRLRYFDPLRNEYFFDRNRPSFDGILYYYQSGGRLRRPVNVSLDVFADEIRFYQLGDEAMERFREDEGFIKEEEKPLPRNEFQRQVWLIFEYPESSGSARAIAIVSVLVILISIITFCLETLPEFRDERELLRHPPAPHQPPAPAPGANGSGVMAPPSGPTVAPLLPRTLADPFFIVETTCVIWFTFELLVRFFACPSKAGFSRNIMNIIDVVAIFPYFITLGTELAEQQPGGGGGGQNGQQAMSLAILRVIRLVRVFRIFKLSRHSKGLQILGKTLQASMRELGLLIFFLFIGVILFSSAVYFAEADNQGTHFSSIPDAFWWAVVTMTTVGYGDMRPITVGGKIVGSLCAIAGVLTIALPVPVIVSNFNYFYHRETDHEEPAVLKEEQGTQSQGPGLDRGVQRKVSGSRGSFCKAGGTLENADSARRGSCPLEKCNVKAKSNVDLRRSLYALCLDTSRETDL

[26] = target: GABA-A receptor; alpha-1/beta-2/gamma-2 (Homo sapiens) (UniProt P14867+P47870+P18507); test: Positive allosteric modulation of GABAA receptor alpha1beta2gamma2 (unknown origin) expressed in mouse LTK cells assessed as potentiation of GABA-mediated increase in channel current under holding potential at -80 mV at 0.01 to 10 uM preincubated for 30 secs followed by GABA stimulation for 2 secs by automated patch clamp assay relative to GABA; assay type: cell-based
[27] = target: Sigma non-opioid intracellular receptor 1 (Homo sapiens) (UniProt Q99720); test: Displacement of [3H](+)pentazocine from human sigma1-receptor at 10 uM after 120 mins by scintillation counting
[28] = target: Voltage-dependent L-type calcium channel subunit alpha-1C (Homo sapiens, UniProt Q13936); test: Inhibition of Cav1.2 (unknown origin) by patch clamp assay
[29] = Clearance in Sprague-Dawley rat at 5 mg/kg, iv or 20 mg/kg, po measured up to 8 hrs post dose by LC/MS-MS analysis; assay type: ADME, organism-based; settings: in vivo
[30] = target: Cytochrome P450 2C19 (Homo sapiens, UniProt P33261); test: Inhibition of CYP2C19 (unknown origin); assay type: ADME
[31] = target: Transient receptor potential cation channel subfamily V member 1 (Homo sapiens) (UniProt Q8NER1); test: Antagonist activity at human TRPV1 expressed in CHOK1 cells assessed as inhibition of capsaicin-induced Ca2+ flux at 10 uM by spectrophotometric analysis; assay type: cell-based
[32] = Clearance in Beagle dog at 5 mg/kg, iv or 20 mg/kg, po measured up to 8 hrs post dose by LC/MS-MS analysis; assay type: ADME, organism-based, Canis lupus familiaris; settings: in vivo
[33] = Protein binding in human plasma at 10 uM after 6 hrs by equilibrium dialysis; assay type: ADME, cell-free; settings: read-out: PPB (converted)
[34] = target: Potassium/sodium hyperpolarization-activated cyclic nucleotide-gated channel 2 (Homo sapiens, UniProt Q9UL51); test: Inhibition of HCN2 (unknown origin) by patch clamp assay
[35] = Clearance in mouse hepatocytes at 10 uM preincubated for 5 mins […] measured over 60 mins by HPLC-MS/MS analysis; assay type: ADME, cell-based, Hepatocyte; settings: read-out: CLH (converted)
[36] = Clearance in mouse hepatic microsomes at 10 uM preincubated for 5 mins followed by NADPH addition measured over 60 mins by HPLC-MS/MS analysis; assay type: ADME, Microsome; settings: liver microsomes
[37] = target: Voltage-gated potassium channel, IKs; KCNQ1(Kv7.1)/KCNE1(MinK) (Homo sapiens, UniProt P15382+P51787); test: Inhibition of KCNQ1/minK (unknown origin) by patch clamp assay
[38] = Clearance in rat hepatic microsomes at 10 uM preincubated for 5 mins followed by NADPH addition measured over 60 mins by HPLC-MS/MS analysis; assay type: ADME, Microsome; settings: liver microsomes
[39] = target: Cytochrome P450 2B6 (Homo sapiens, UniProt P20813); test: Inhibition of CYP2B6 (unknown origin); assay type: ADME
[40] = Oral bioavailability in Sprague-Dawley rat at 20 mg/kg measured up to 8 hrs post dose by LC/MS-MS analysis; assay type: ADME, organism-based; settings: in vivo
[41] = target: Cytochrome P450 2D6 (Homo sapiens, UniProt P10635); test: Inhibition of CYP2D6 (unknown origin); assay type: ADME
[42] = target: Gamma-aminobutyric acid receptor subunit alpha-4/beta3/delta (Homo sapiens, UniProt O14764+P28472+P48169); test: Positive allosteric modulation of GABAA receptor alpha4beta3delta (unknown origin) expressed in CHO cells assessed as potentiation of GABA-mediated increase in channel current under holding potential at -80 mV preincubated for 30 secs followed by GABA stimulation for 2 secs by manual patch clamp assay; assay type: cell-based
Sequence of Gamma-aminobutyric acid receptor subunit alpha-4/beta3/delta (P28472 whole entry): as the sequence (P28472 whole entry) above
Sequence of Gamma-aminobutyric acid receptor subunit alpha-4/beta3/delta (P48169 whole entry): as the sequence (P48169 whole entry) above
Sequence of Gamma-aminobutyric acid receptor subunit alpha-4/beta3/delta (O14764 whole entry): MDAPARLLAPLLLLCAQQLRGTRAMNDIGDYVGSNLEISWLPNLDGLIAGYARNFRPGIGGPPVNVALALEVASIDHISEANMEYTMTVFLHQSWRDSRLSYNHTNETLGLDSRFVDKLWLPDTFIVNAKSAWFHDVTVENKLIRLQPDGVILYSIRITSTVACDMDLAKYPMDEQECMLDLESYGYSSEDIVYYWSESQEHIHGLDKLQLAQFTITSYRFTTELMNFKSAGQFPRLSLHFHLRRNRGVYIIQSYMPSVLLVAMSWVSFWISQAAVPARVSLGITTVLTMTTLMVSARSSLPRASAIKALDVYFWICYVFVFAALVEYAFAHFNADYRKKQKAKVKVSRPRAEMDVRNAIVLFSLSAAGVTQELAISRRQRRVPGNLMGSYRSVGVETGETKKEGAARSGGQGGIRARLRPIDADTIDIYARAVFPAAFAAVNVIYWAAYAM

[43] = Clearance in dog hepatic microsomes at 10 uM preincubated for 5 mins followed by NADPH addition measured over 60 mins by HPLC-MS/MS analysis; assay type: ADME, Canis lupus familiaris, Liver, Microsome; settings: 1 h
[44] = Clearance in dog hepatocytes at 10 uM preincubated for 5 mins […] measured over 60 mins by HPLC-MS/MS analysis; assay type: ADME, cell-based, Canis lupus familiaris, Hepatocyte; settings: 1 h

C[C@@]1(O)CC[C@H]2[C@H](CC[C@@H]3[C@@H]2CC[C@]2(C)[C@@H](C(=O)Cn4cc(C#N)cn4)CC[C@@H]32)C1 [ZURANOLONE]
CLH [1]: 15 mL/min/kg
CL [2]: < 10%
IC50 [3]: > 30 µM
bioavailability [4]: 62%
MEC [5]: 85 nM
bioavailability [6]: 68%
logD at 20 µM [7]: 4.6
clearance [8]: 25 mL/min/kg
fraction unbound at 6 h, 10 µM [9]: 0.01
IC50 [10]: > 30 µM
IC50 [11]: > 30 µM
IC50 [12]: > 30 µM
IC50 [13]: > 30 µM
IC50 [14]: 0.007 µM
IC50 [15]: > 30 µM
Kp at 0.5 h [16]: 4.2
solubility thermodynamic at 1 h, 10 µM [17]: 2 µM (≈ 0.819 µg/mL)
fraction unbound at 6 h, 10 µM [18]: 0.012
Activity [19]: 57%
IC50 [20]: > 30 µM
CLhep predicted at 10 µM [21]: 3.33 mL/min/kg
Emax [22]: 574%
CLH [23]: 17 mL/min/kg
fraction unbound at 6 h, 10 µM [24]: 0.016
IC50 [25]: > 30 µM
Emax [26]: 473%
inhibition [27]: 88%
IC50 [28]: > 30 µM
clearance [29]: 23.3 mL/min/kg
IC50 [30]: > 30 µM
inhibition [31]: 95%
clearance [32]: 1.67 mL/min/kg
fraction unbound at 6 h, 10 µM [33]: 0.012
IC50 [34]: > 30 µM
CLint scaled at 10 µM [35]: 102 mL/min/kg
CLhep predicted at 10 µM [36]: 70 mL/min/kg
IC50 [37]: > 30 µM
CLhep predicted at 10 µM [38]: 36.7 mL/min/kg
IC50 [39]: > 30 µM
bioavailability [40]: 32%
IC50 [41]: > 30 µM
EC50 [42]: 0.299 µM
CLH [43]: 10 mL/min/kg
CLH [44]: 10 mL/min/kg
